Source: patent US11186552B2, “Tebuconazole polymorph and preparation method therefor” (East China University of Science and Technology, priority 2017, dated 2021)
≈ marks a conversion by molar mass, not a printed value.

How the values were obtained:
wheat white powder = experiment: Live spray protection of plants, prevention and control effect; assay type: in vivo
From the text: The water-dispersible granules preparations with 50% of crystal form 1 and crystal form 2 were formulated into solutions, respectively, and the plants were protected by live spray. Crystal form 2 has better prevention and control effect.

[1] = Solubility in ethanol by high performance liquid chromatography
Description: Excess crystal form 1 and crystal form 2 were weighed and suspended in ethanol, shaken for 12 h, and high performance liquid chromatography was used to test the solubility.

[2] = High temperature stability of crystal form (XRPD test); assay type: physicochemical; settings: oven at 60±2° C., 5 and 10 days
Description: XRD (X-ray powder diffraction) method: instrument model: Rigaku Ultima IV; target: Cu-Kα (40 kV, 40 mA); using a D/tex Ultra detector at room temperature. The scanning range is from 3° to 45 in the 2θ interval, and the scanning speed is 20°/minute. […] After 5 and 10 days, the sample was taken out for XRPD test to investigate the crystalline stability of the sample to temperature.

[3] = High humidity stability of crystal form (XRPD test); assay type: physicochemical; settings: 90±5% humidity, 5 days and 10 days
Description: (§1) XRD (X-ray powder diffraction) method: instrument model: Rigaku Ultima IV; target: Cu-Kα (40 kV, 40 mA); using a D/tex Ultra detector at room temperature. The scanning range is from 3° to 45 in the 2θ interval, and the scanning speed is 20°/minute.

[4] = Light stability of crystal form (XRPD test); assay type: physicochemical; settings: 4500±500 lux light intensity, 5 days and 10 days
Description: as §1

## CC(C)(C)C(O)(CCc1ccc(Cl)cc1)Cn1cncn1 (racemic) [96% tebuconazole TC, (RS)-1-(4-chlorophenyl)-4,4-dimethyl-3-(1H-1,2,4-triazol-1-ylmethyl) pentan-3-ol]
Wheat white powder; concentration 0.15625 mg/L
  prevention and control effect: 0%
Wheat white powder; concentration 0.625 mg/L
  prevention and control effect: 30%
Wheat white powder; concentration 2.5 mg/L
  prevention and control effect: 50%
Wheat white powder; concentration 10 mg/L
  prevention and control effect: 100%

## CC(C)(C)C(O)(CCc1ccc(Cl)cc1)Cn1cncn1 (racemic) [crystal form 1, (RS)-1-(4-chlorophenyl)-4,4-dimethyl-3-(1H-1,2,4-triazol-1-ylmethyl) pentan-3-ol]
[1]; organic solvent or mixture, thermodynamic from solid, Solubility, excess solid suspended in ethanol, shaken for 12 h, HPLC
  solubility at 12 h: 92.1 mg/mL (≈ 299 mM)

## CC(C)(C)C(O)(CCc1ccc(Cl)cc1)Cn1cncn1 (racemic) [crystal form 2, (RS)-1-(4-chlorophenyl)-4,4-dimethyl-3-(1H-1,2,4-triazol-1-ylmethyl) pentan-3-ol]
[1]; ethanol, crystal form 2 versus crystal form 1
  solubility in ethanol relative to crystal form 1: about 1.7 times
[1]; excess solid suspended in ethanol, shaken for 12 h, HPLC
  Solubility: 156.2 g/L (≈ 507 mM)
[2]
  crystalline stability of the sample to temperature: stable
[3]
  crystalline stability of the samples to humidity: stable
[4]
  crystal form stability of the sample to light: stable
